Where a name gives a salt, the structure may show the parent alone.
SMILES	melting point [°C]
COc1ccccc1N1CCN(CCCCN2CC=C(c3c[nH]c4cc(Cl)ccc34)CC2)CC1	131 to 133
COc1ccccc1N1CCN(CCCCCCN2CCC(c3c[nH]c4cc(F)ccc34)CC2)CC1 (as salt: hydrochloride) [Example 22, 1-(2-methoxyphenyl)-4-(6-(4-(6-fluoroindol-3-yl)-piperidin-1-yl)hex-1-yl)piperazine trihydrochloride]	145 to 147
COc1ccccc1N1CCN(CCCCCN2CCC(c3c[nH]c4cc(Cl)ccc34)CC2)CC1 (as salt: hydrochloride) [Example 20, 1-(2-methoxyphenyl) -4-(5-(4-(6-chloroindole-3-yl) -piperidin-1-yl)pent-1-yl)piperazine trihydrochloride]	139 to 141
COc1ccccc1N1CCN(CCCCCN2CCC(c3c[nH]c4cc(F)ccc34)CC2)CC1 (as salt: hydrochloride) [Example 19, 1-(2-methoxyphenyl) -4-(5-(4-(6-fluoroindole-3-yl) -piperidin-1-yl)pent-1-yl)piperazine trihydrochloride]	113 to 115
COc1ccccc1N1CCN(CCCCCN2CC=C(c3c[nH]c4cc(Cl)ccc34)CC2)CC1 [Example 15, 1-(2-methoxyphenyl)-4-(5-(4-(6-chloroindole-3-yl)-1,2,3,6-tetrahydropyridin-1-yl)pent-1-yl)piperazine]	126 to 128
COc1ccccc1N1CCN(CCCCCN2CC=C(c3c[nH]c4cc(F)ccc34)CC2)CC1 [Example 16, 1-(2-methoxyphenyl)-4-(5-(4-(6-fluoroindole-3-yl)-1,2,3,6-tetrahydropyridin-1-yl)pent-1-yl)piperazine]	69 to 71
COc1ccccc1N1CCN(CCNCCCN2CCC(c3c[nH]c4cc(Cl)ccc34)CC2)CC1 (as salt: hydrochloride) [Example 10, N-(2-(4-(2-methoxyphenyl)piperazin-1-yl)eth-1-yl)-N-3-(4-(6-chloroindol-3-yl)-piperidin-1-yl)prop-1-ylamine tetrahydrochloride]	91 to 95
COc1ccccc1N1CCN(CCNCCN2CC=C(c3c[nH]c4cc(Cl)ccc34)CC2)CC1 [Example 12, N-(2-(4-(2-methoxyphenyl)piperazin-1-yl)eth-1-yl), N-2-(4-(6-chloroindol-3-yl)-1,2,3,6-tetrahydropyridin-1-yl)eth-1-ylamine]	78 to 80
COc1ccccc1N1CCN(CCCCCCN2CCC(c3c[nH]c4cc(Cl)ccc34)CC2)CC1 (as salt: hydrochloride) [Example 21, 1-(2-methoxyphenyl)-4-(6-(4-(6-chloroindol-3-yl)-piperidin-1-yl)hex-1-yl)piperazine trihydrochloride]	185 to 187
COc1ccccc1N1CCN(CCNC(=O)CCN2CC=C(c3c[nH]c4cc(F)ccc34)CC2)CC1 [Example 1, N-(2-(4-(2-methoxyphenyl)piperazin-1-yl)eth-1-yl)-3-(4-(6-fluoroindol-3-yl)-1,2,3,6-tetrahydropyridin-1-yl)propanamide]	175 to 177
COc1ccccc1N1CCN(CCNCCCN2CC=C(c3c[nH]c4cc(Cl)ccc34)CC2)CC1 [Example 7, N-(2-(4-(2-methoxyphenyl)piperazin-1-yl)eth-1-yl)-N-3-(4-(6-chloroindol-3-yl)-1,2,3,6-tetrahydropyridin-1-yl)prop-1-ylamine]	71 to 73
COc1ccccc1N1CCN(CCNCCCN2CC=C(c3c[nH]c4cc(F)ccc34)CC2)CC1 [Example 6, N-(2-(4-(2-methoxyphenyl)piperazin-1-yl)eth-1-yl)-N3-(4-(6-fluoroindol-3-yl)-1,2,3,6-tetrahydropyridin-1-yl)prop-1-ylamine]	82 to 84
COc1ccccc1N1CCN(CCCCCCN2CC=C(c3c[nH]c4cc(F)ccc34)CC2)CC1 [Example 14, 1-(2-methoxyphenyl)-4-(6-(4-(6-fluoroindole-3-yl)-1,2,3,6-tetrahydropyridin-1-yl)hex-1-yl)piperazine]	105 to 107
COc1ccccc1N1CCN(CCNC(=O)CCN2CC=C(c3c[nH]c4cc(Cl)ccc34)CC2)CC1 [Example 2, N-(2-(4-(2-methoxyphenyl)piperazin-1-yl)eth-1-yl)-3-(4-(6-chloroindol-3-yl)-1,2,3,6-tetrahydropyridin-1-yl)propanamide]	181 to 183
